Source: patent US20100331336A1, “PROTECTIVE EFFECT OF HIGH DOSE FOLATE ON MYCARDIAL ISCHEMIA” (Universiteit Antwerpen, priority 2008, published 2010)

Assays:
[1] = tested on: Adult Wistar rats, coronary artery ligation; test: In vivo ischemia/reperfusion model, pressure-volume loop hemodynamics; parameters: species or system rat; settings: FA 10 mg/d oral pre-treatment 7 days; 30 min LAD occlusion
Description: (§1) Adult Wistar rats received FA (10 mg/day unless otherwise stated) or placebo by oral gavage for 7-days prior to performing the ischemia/reperfusion (IR) experiment. A total of 131 rats were used, the sample size reflecting the requirement for multiple assays that could not be performed in each animal, but were rather obtained in different subsets of the total group. Animals were anesthetized (pentobarbital 60 mg/kg), intubated via tracheotomy, and ventilated (Harvard Apparatus, Mass.). ECG was monitored and temperature maintained at 37.5° C. The left anterior artery was exposed through the 4-5th intercostal space and a suture placed around it, and transient coronary artery ligation performed for 30 min with (n=85) or without (n=46) 90 min reperfusion. In one subgroup of reperfused animals (n=9), FA was provided 10 minutes after the onset of LAD occlusion (i.e. 20 minutes before the onset of reperfusion), delivered as an IV-bolus.
(§2) LV function was assessed in vivo by pressure-volume loops (n=14) during both ischemia and following reperfusion. […] Open chest myocardial anterior wall motion was also measured using a Sequoia—Acuson C256 equipped with 15 MHz linear transducer (Sequoia C256 Echocardiography System, Acuson Corporation, Mountain View, Calif.) at the parasternal view of the left ventricle chamber as described.

[2] = tested on: Adult Wistar rats, coronary artery ligation; test: Open chest echocardiography during LAD occlusion; format: in vivo, rat; settings: FA pre-treatment; at 30 min ischemia
Description: as §1, §2

[3] = tested on: Adult Wistar rats, coronary artery ligation; test: Regional myocardial blood flow by microspheres; format: in vivo, rat; settings: FA pre-treatment
Description: as §1
Regional myocardial blood flow was assessed (n=12) by nuclear-activated microspheres ([…], BioPal, Worcester, MA) injected in the left atrium (0.3 ml of 2.5*10^6 spheres/ml) at baseline and after 5 and 30 min of ischemia (Reinhardt et al., 2001). Total counts per minute (cpm) were normalized to weight and results from the ischemic zone normalized to the remote region to provide relative blood flow before and during ischemia.

[4] = tested on: Adult Wistar rats, coronary artery ligation; test: HPLC analysis of high energy phosphate metabolism in anterior wall samples; format: in vivo, rat; settings: FA pre-treatment; 30 min ischemia, versus controls
Description: as §1, with “In one subgroup of reperfused animals (n=9), FA was provided 10 minutes after the onset of LAD occlusion (i.e. 20 minutes before the onset of reperfusion), delivered as an IV-bolus.” left out
Snap frozen samples (n=24) from the anterior wall (±FA pre-treatment; ±30 min ischemia, no reperfusion) were de-proteinized and subjected to HPLC analysis of water-soluble low-molecular weight compounds reflecting tissue oxid-oreductive and energy status. High-energy phosphates, oxypurines (hypoxanthine, xanthine, and uric acid), nucleosides (inosine and adenosine), malondialdehyde, and reduced and oxidized glutathione were measured by ion-pairing HPLC as described (Takimoto et al., 2005).

[5] = tested on: Adult Wistar rats, coronary artery ligation; test: Infarct size analysis and histology, in vivo IR; parameters: species or system rat
Description: as §1
(§3) Infarct size was assessed in 31 rats, with area at risk (AAR) determined by negative staining with Evans blue injected during coronary occlusion, and subsequent staining with TTC to detect myocardial necrosis. LV (free wall+whole septum), AAR (neg Evan's Blue) and area of necrosis (TTC-white) were measured by planimetry (Soft Imaging system GmbH, Analysis pro version 3.00), and digitized images subjected to equivalent background subtraction, brightness, and contrast enhancement for improved clarity and sharpness. For in vitro studies, TTC staining was not preceded by Evans' blue staining because global ischemia was created. Contraction band necrosis was assessed in vivo rat hearts (n=22) fixed in Carnoy solution and stained with Masson's trichrome. Serial adjacent fields were examined throughout the full LV to calculate the percent myocardium with contraction bands present. Similar analysis was performed for TUNEL-positivity (Chemicon Intern, Temecula, Calif.), also expressed as percent LV area.

[6] = tested on: Adult Wistar rats, coronary artery ligation; test: Ischemia and reperfusion arrhythmia, in vivo IR; parameters: species or system rat
Description: as §1

[7] = tested on: isolated hearts of adult Wistar rats; test: In vitro IR model, isolated perfused hearts: infarct size and LDH; parameters: species or system rat
Description: (§4) Adult Wistar rats (n=28) were anesthetized (pentobarbital 60 mg/kg), and hearts rapidly excised and mounted onto a retrograde perfusion system (Emka, Paris, France) using warmed, oxygenated buffered Krebs-Henseleit solution at constant perfusion pressure (75 mmHg). Hearts were paced at 300 bpm, and maintained in an unloaded state. Coronary flow was measured by an in-line ultrasonic flow probe (Transonic Systems, Ithaca, N.Y., USA). After 30 min equilibration, vasodilators drugs (bradykinin and sodium nitroprusside) were infused by bolus injection (50 μl, 10^−8-10^−5.5 M i.c.) and coronary flow reserve assessed at constant perfusion pressure. After re-establishing baseline, hearts received FA (4.5 10^−6M i.c.) or vehicle for 30 min. Afterwards the hearts were subjected to 40-min zero coronary flow followed by 40 min of reperfusion. Coronary effluent was collected, concentrated (Sartorius-Sipan, Lier, Belgium) and analysed for lactate dehydrogenase (Vitros 950AT, O. C. D., Beerse, Belgium). Coronary vasodilator responses to the same two agents were repeated following reperfusion.
as §3

myocardial superoxide = test: Myocardial superoxide by lucigenin-enhanced chemiluminescence; format: in vivo, rat; settings: for decline of O2^− generation on pre-incubation of extracts: 100 μM BH4
Description: as §1
(§5) Superoxide was assessed by lucigenin (5 μM)-enhanced chemiluminescence (Beckman LS60001C, n=23)^22 and fluorescent microtopography (dichlorodihydro-fluorescein diacetate, DCF, n=16) and dihydroethidium, DHE, n=24) (Gupte et al., 2005). The direct anti-oxidants effects of folic acid were analysed using an in vitro xanthine/xanthine oxidase system (Antoniades et al., 2006) and compared with Tempol.

[8] = tested on: superoxide generated by xanthine/xanthine oxidase; test: In vitro xanthine/xanthine oxidase O2− generating system; format: biochemical; settings: lucigenin-enhanced chemiluminescence, FIG. 5F
Description: as §5

eNOS = eNOS monomer/dimer formation and NOS enzymatic activity in IR tissue; format: in vivo, rat
Description: as §1
SDS-resistant eNOS dimers and monomers were assayed on ischemia/reperfusion-tissue (n=16) using low temperature SDS-PAGE as previously described (Takimoto. et al., 2005) NOS enzymatic activity was assessed by arginine to citrulline conversion assay from extracts obtained from frozen myocardium (n=15) (Takimoto. et al., 2005).

[9] = tested on: isolated hearts of adult Wistar rats; test: Coronary flow and vasodilator response in isolated hearts; parameters: species or system rat
Description: as §4

serum homocysteine = settings: achievable with 0.8 mg/d; cited from earlier work
[10] = FA 10 mg i.v. after 10 min of coronary occlusion

Nc1nc2ncc(CNc3ccc(C(=O)N[C@@H](CCC(=O)O)C(=O)O)cc3)nc2c(=O)[nH]1 [FA, folic acid]
Peak LV pressure (systolic blood pressure) change with LAD occlusion [1]: changed little
Ejection fraction [2]: 72.8±1.2%
anterior-septal thickening [2]: 37.±5.3%
ratio of ischemic/remote zone myocardial perfusion, decline ([3]; after 5 min of LAD ligation): −77.7±5.1%
flow compared to the remote region ([3]; at 30 minutes of ischemia): −78.4±9.3%
myocardial ATP and ADP during ischemia [4]: maintained at higher levels
TUNEL staining, % LV [5, 10]: 4.3±1.3 % LV
area at risk (AAR) [5, 10]: 52.4±5.5%
contraction band necrosis, % LV [5, 10]: 5.1±0.7 % LV
infarct size relative to AAR ([5]; FA 10 mg i.v. after 10 min of coronary occlusion, n=5): 3.0±2.2%
infarct size, % area at risk ([5]; oral FA 10 mg/d pre-treatment 7 days, 30 min ischemia, 90 min reperfusion): 3.8±1.2%
Reperfusion contraction band necrosis, % of the LV ([5]; oral FA pre-treatment, IR): 4.6%±1.2
TUNEL-positive myocytes, % of LV fields ([5]; oral FA pre-treatment, IR): 4.3±1.3%
infarct size with lower doses ([5]; pre-treatment by 40% and 10% of the principal FA dose (1 and 4 mg/d)): decline in infarct size occurred
reperfusion arrhythmia occurrence ([6]; FA treated): no FA treated animal
lethal ventricular arrhythmia triggered by ischemia, % of rats ([6]; FA-treated): 8.3%
infarct size in isolated hearts ([7]; FA 4.5 10^−6M i.c. 30 min, 40 min zero flow, 40 min reperfusion): 7.7±2.8%
reduction of myocardial necrosis in hearts studied in vitro ([7]; FA pre-treatment, FIG. 4D): ~80%
lactate dehydrogenase in the coronary effluent ([7]; FA pre-treatment, after ischemia-reperfusion): less lactate dehydrogenase
decline of myocardial superoxide (lucigenin chemiluminescence) (myocardial superoxide; FA pre-treated animals, during ischemia and after 90 minutes reperfusion): ~50%
direct anti-oxidant effect [8]: substantial anti-oxidant effects
eNOS ratio of dimer/monomer (eNOS; FA-pre-treated IR hearts): near normal
NOS activity, arginine-citrulline conversion (eNOS; treated vs. non-treated hearts, p=0.08): not significant improved
Bradykinin induced maximal rise in coronary flow ([9]; after IR, hearts pre-treated with FA): 122.0±11.3%
coronary flow after ischemia ([9]; isolated hearts): 8.9 ± 1.4 mL/min
coronary flow at baseline ([9]; isolated hearts): 11.4 ± 13.8 mL/min
decrease in serum homocysteine (serum homocysteine): 3 µmol/L

C[C@H](O)[C@H](O)[C@H]1CNc2nc(N)[nH]c(=O)c2N1 [BH4, tetrahydrobiopterin]
decline of O2^− generation on pre-incubation of extracts (myocardial superoxide; extracts of FA pre-treated hearts): 52.1±11.3%
decline of O2^− generation on pre-incubation of extracts (myocardial superoxide; extracts of vehicle treated IR hearts): 90.9±0.7%
